One experiment has as its system TNF-α. Kind of experiment: Spontaneous TNF-α release from synovial cells of RA patients. The experiment is classed as cell-based. The settings on record: Homo sapiens, Synovial cell, freshly isolated synovial cells from RA patients, 16 hours. The procedure:
(§1) Cytokine production in synovial cells obtained from rheumatoid arthritis patients undergoing knee replacement surgery, was measured as per the method described in reference, Lancet, 1989, 29, 244-247, the disclosure of which is incorporated herein by reference for the teaching of the assay. The synovial membrane tissue was digested by incubating at 37° C. for 3 hours in an atmosphere of 5% CO2, in Roswell Park Memorial Institute (RPMI) medium containing penicillin-G (100 U/mL), streptomycin (100 μg/mL), amphotericin B (50 ng/mL) (GIBCO), 1.33 mg/mL collagenase Type I (Worthington Biochemical Corporation, New Jersey, USA), 0.5 μg/mL DNAse Type I (SIGMA) and 8.33 U/mL heparin (Biological E. Limited, India). The digested tissue was then filtered through a membrane (mesh size 70 micron) (SIGMA), the cells were washed 3 times and suspended in complete medium (RPMI supplemented with 5% FCS and 5% human serum). The cell concentration was adjusted to 1×10^6 cells/mL. The viability as determined by trypan blue dye exclusion was uniform Ly≧98%. The cell suspension (100 μL) was added to the wells of a 96-well culture plate. […] The final concentration of DMSO was adjusted to 0.5%. The vehicle (0.5° A) DMSO) was used as control. SB 203580 (20 μM) was used as a standard. The plates were incubated for 16 hours at 37° C. in 5% CO2 atmosphere. […]

Experiment [1] relates to arthritic (CIA) DBA/1J mice. The experiment can be described thus: Collagen induced arthritis in mouse. The experiment is classed as in vivo. The settings on record: 50 mg/kg oral twice daily, 23 days. The procedure: The assay was designed as in reference, J. Exp. Med., 1985, 162, 637-646, the disclosure of which is incorporated herein by reference for the teaching of the assay.
Male DBA/1J mice (originally procured from Jackson Laboratories, USA), aged 8-10 weeks were immunized with an emulsion equivalent to 200 μg of type II collagen in Freund's Complete Adjuvant, injected intradermally at the base of the tail. A booster shot with the same emulsion was given 21 days later. A group of naïve mice was maintained alongside.
From day 23 to day 56, mice were examined daily once for the signs of rheumatoid arthritis, using the Articular Index and paw thickness as parameters. Articular Index scoring was performed employing the following criteria:
Mice with a minimum hind paw score of 2 were inducted into the study.
Mice were randomized into the various study groups and orally administered the vehicle (0.5% CMC, 1 ml/kg), test compound (compound of example 3, 50 mg/kg twice daily) and standard compound (Enbrel, 3 mg/kg, s.c., once daily). […] The dosing of the compounds was done for 23 days.
The following parameters were observed and recorded daily, • 1. Body weight • 2. Articular index • 3. Paw thickness in mm using a tension free caliper • 4. Any significant observation regarding the condition of the animal. […]
The results are graphically depicted in FIG. 3 (Articular index versus days of treatment) and FIG. 4 (Paw thickness versus days of treatment). Data obtained during the course of this study (articular index and paw thickness) was statistically evaluated by applying Mann-Whitney U test.
Mice were humanely euthanized and the hind paws were harvested from each animal, fixed in 10% neutral buffered formalin, decalcified in 5% formic acid and embedded in paraffin. Section […] were stained with either hematoxylin and eosin or safranin 0 and evaluated microscopically. Histopathological changes were scored as follows: mild (score=1), moderate (score=2) or severe (score=3) for the parameters of cellular infiltration, bone erosions and cartilage damage, graded separately. […]

A further experiment deals with PDE4. The experiment can be described thus: PDE4 inhibition, cAMP fluorescence assay in salbutamol-stimulated U937 cells. The experiment is classed as cell-based, human. As to conditions: for Relative Fluorescence (RF): U937 cells, salbutamol 1 μM. The procedure:
Culture medium was changed every 2-3 days and always 24 hours before harvest. RPMI medium, FBS and Salbutamol were purchased from Sigma-Aldrich (USA). Rolipram was synthesized in the Medicinal Chemistry Department, Piramal Life Sciences Limited.
Rolipram was used as a standard (0.3, 1 and 3 μM). […] Fluorescence measurements were taken with Polarstar Optima (BMG Labtech-Germany).
Relative fluorescence was calculated using the following formula where: RF=Relative Fluorescence, Fo=fluorescent intensity of the blank or buffer control, F=fluorescence of cAMP or sample: RF=(Fo−F)/Fo
A standard curve was plotted using the RF values of the given standards and the values of cAMP corresponding to the test compounds were determined using the standard plot.

The test system of another experiment is IL-6. The experiment can be described thus: Spontaneous IL-6 release from synovial cells of RA patients. Format: cell-based. The settings on record: Homo sapiens, Synovial cell, freshly isolated synovial cells from RA patients, 16 hours. The procedure:
as §1

For the molecule `CN1CC[C@@H](c2c(O)cc(O)c3c(=O)cc(-c4ccc(C(F)(F)F)cc4Cl)oc23)[C@@H]1CO.Cl` [Compound of example 3, (+)-trans-2-(2-Chloro-4-trifluoromethyl-phenyl)-5,7-dihydroxy-8-(2-hydroxymethyl-1-methyl-pyrrolidin-3-yl)-chromen-4-one hydrochloride], the IC50 (usually the point on the concentration scale where inhibition reaches its midpoint) in the experiment on TNF-α is 20 µM; in the experiment with IL-6, 10 µM. The “Severity of disease by articular index and paw thickness” value in experiment [1] is on record as “trend towards ameriolation of the disease”. Further, the “Histopathological evaluation of hind paws” value in experiment [1] (cellular infiltration, bone erosions, cartilage damage) was “potential anti-arthritic effect”. In addition, the “PDE4 inhibition (conclusion)” value with PDE4 (U937 cells, 1, 3 and 10 μM) is recorded as “not a PDE4 inhibitor”. The “Relative Fluorescence (RF)” value came to 0.71 in the experiment on PDE4 (concentration 1 μM), 0.95 in the experiment with PDE4 (concentration 3 μM) and 0.95 with PDE4 (concentration 10 μM).
